TGI data for 14 molecules are collected here from PubChem BioAssay (NCI).

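Cultured in 96-well plates, cells were exposed to test compound for 48 hours across five concentrations. TGI: concentration producing complete growth inhibition.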 Where only a bound is given, the exact number is not on record here.

Among the test systems are HOP-62 NSCLC; CAKI-1 renal; T-47D breast; SK-OV-3 ovarian; OVCAR-5 ovarian; ACHN renal; RXF 393 renal; MDA-N; MCF7 breast; NCI-H460 lung.
Assay in all cases: NCI-60 cell line screen, 48 h

Take `O=C(N/N=C(/COc1ccc(Cl)cc1)N=Cc1ccncc1)c1ccncc1`: the TGI in the test with HOP-62 NSCLC, with CAKI-1 renal, in the test with T-47D breast, with SK-OV-3 ovarian, in the test on OVCAR-5 ovarian and in the test on ACHN renal was over 100 µM in each case. The TGI with RXF 393 renal, in the test with MDA-N, with MCF7 breast and in the test on NCI-H460 lung was over 100 µM throughout.

Turning to `c1csc(-c2ccc(-c3cccc4nsnc34)s2)c1`, the TGI in the test with HOP-62 NSCLC, in the test on CAKI-1 renal, in the test with T-47D breast, in the test with SK-OV-3 ovarian, in the test on OVCAR-5 ovarian and with ACHN renal was over 100 µM each time. Moreover, the TGI in the test with RXF 393 renal, in the test with MDA-N, in the test on MCF7 breast and in the test on NCI-H460 lung was over 100 µM throughout.

Turning to `COC(=O)C1SC(SC)=NC12c1ccccc1Nc1ccccc12` (stereo not given), the TGI with HOP-62 NSCLC, in the test with CAKI-1 renal, in the test with T-47D breast, with SK-OV-3 ovarian, in the test on OVCAR-5 ovarian and with ACHN renal was over 100 µM each time. In addition, the TGI with RXF 393 renal is over 100 µM; in the test on MDA-N, 70.6 µM; in the test on MCF7 breast, 82.7 µM; in the test on NCI-H460 lung, 56.1 µM.

For `NC(N)=N/N=C/c1c(-c2ccc(N)cc2)nc2sccn12`, the TGI in the test with HOP-62 NSCLC is 79 µM; in the test with CAKI-1 renal, over 100 µM; in the test with T-47D breast, 90.3 µM; with SK-OV-3 ovarian, 64 µM; in the test on OVCAR-5 ovarian it was 46.8 µM; with ACHN renal, 77.9 µM. The TGI in the test on RXF 393 renal is 39.9 µM; in the test with MDA-N it was 60.1 µM; in the test on MCF7 breast, over 100 µM; in the test on NCI-H460 lung, 76.8 µM.

In the case of `Cc1ccc(N=NC(=Nc2ccccc2)c2ccc(N(CCC#N)CCC#N)cc2)cc1`, the TGI in the test on HOP-62 NSCLC, with CAKI-1 renal, with T-47D breast, with SK-OV-3 ovarian, with OVCAR-5 ovarian and in the test on ACHN renal was over 100 µM in each case. The TGI in the test on RXF 393 renal is 80.1 µM; in the test on MDA-N, over 100 µM; in the test on MCF7 breast, 79.2 µM; in the test on NCI-H460 lung it was 45.5 µM.

On to `CCCCCCc1cc2cc(-c3csc(CC#N)n3)c(=O)oc2cc1O`, for which the TGI in the test with HOP-62 NSCLC was over 100 µM; with CAKI-1 renal, over 100 µM; in the test on T-47D breast, over 100 µM; in the test with SK-OV-3 ovarian it was 97.6 µM; with OVCAR-5 ovarian it was over 100 µM; with ACHN renal, over 100 µM. Besides, the TGI in the test on RXF 393 renal is over 89.2 µM; in the test with MDA-N it was over 100 µM; with MCF7 breast, over 100 µM; in the test on NCI-H460 lung, over 100 µM.

Regarding `CCOC(=O)C1(C/C=C/CBr)Cc2ccccc2C1=O` (stereo not given), the TGI in the test on HOP-62 NSCLC was determined as 14.8 µM; in the test on CAKI-1 renal, 7.27 µM; in the test with T-47D breast, 12.2 µM; in the test with SK-OV-3 ovarian it was 21.5 µM; with OVCAR-5 ovarian, 20.1 µM; with ACHN renal it was 7.19 µM. Besides, the TGI in the test on RXF 393 renal was 6.32 µM; with MDA-N, 6.37 µM; in the test with MCF7 breast, 8.73 µM; in the test with NCI-H460 lung it was 4.21 µM.

As for `[N-]=[N+]=NC[C@H]1OCO[C@H](CN=[N+]=[N-])[C@@H](OCCOCCCl)[C@@H]1OCCOCCCl`, the TGI with HOP-62 NSCLC, in the test with CAKI-1 renal, with T-47D breast, with SK-OV-3 ovarian, with RXF 393 renal and in the test on MDA-N was over 100 µM in each case. Also, the TGI in the test on MCF7 breast and in the test on NCI-H460 lung was over 100 µM throughout.

Regarding `CC(C)(C)N1CSC(=S)N(Cc2ccco2)C1`, the TGI in the test with HOP-62 NSCLC was 19.4 µM; with CAKI-1 renal, 12.4 µM; in the test with T-47D breast, 46.4 µM; in the test on SK-OV-3 ovarian, 18.9 µM; in the test with OVCAR-5 ovarian it was 11.7 µM; in the test with ACHN renal, 13.7 µM. Moreover, the TGI in the test on RXF 393 renal was determined as 19.4 µM; with MDA-N it was 16.5 µM; in the test on MCF7 breast, 14.3 µM; with NCI-H460 lung, 22.5 µM.

As for `COc1cc(C2c3cc4c(cc3OC(N3CCOCC3)C2C)OCO4)ccc1O` (stereo not given), the TGI in the test on HOP-62 NSCLC was over 63.8 µM; in the test on CAKI-1 renal, 71.1 µM; in the test on T-47D breast, over 78.2 µM; with OVCAR-5 ovarian, over 100 µM; with ACHN renal, over 100 µM; in the test with RXF 393 renal it was 27.6 µM. Besides, the TGI in the test on MDA-N is 4.41 µM; in the test with MCF7 breast it was over 83 µM; in the test on NCI-H460 lung it was 55.5 µM.

In the case of `CCOC(=O)c1csc(NC(=O)CN2CCOCC2)n1`, the TGI with HOP-62 NSCLC, with CAKI-1 renal, with T-47D breast, in the test with SK-OV-3 ovarian, in the test on OVCAR-5 ovarian and in the test on ACHN renal was over 100 µM each time. In addition, the TGI with RXF 393 renal, in the test with MDA-N, in the test on MCF7 breast and in the test on NCI-H460 lung was over 100 µM in each case.

Turning to `CC1(C)N=[N+]([O-])C1(C)C`, the TGI with CAKI-1 renal, with T-47D breast, with SK-OV-3 ovarian, with OVCAR-5 ovarian, in the test with RXF 393 renal and in the test on MDA-N was over 100 µM throughout. Moreover, the TGI with MCF7 breast and in the test with NCI-H460 lung was over 100 µM in each case.

Take `O=[N+]([O-])c1ccc2c(c1)c(OCc1ccccc1)nn2Cc1ccccc1`: the TGI in the test with HOP-62 NSCLC, in the test on CAKI-1 renal, with T-47D breast, in the test with SK-OV-3 ovarian, with OVCAR-5 ovarian and in the test with ACHN renal was over 100 µM each time. For the same molecule, the TGI in the test with RXF 393 renal, in the test with MDA-N, in the test with MCF7 breast and in the test on NCI-H460 lung was over 100 µM each time.

Consider `NC(=O)NCCCC(NC(=O)OCCCCn1ccc(=O)[nH]c1=O)C(=O)O` (stereo not given), for which the TGI in the test with HOP-62 NSCLC, in the test with CAKI-1 renal, in the test on T-47D breast, with SK-OV-3 ovarian, in the test with OVCAR-5 ovarian and in the test on ACHN renal was over 100 µM each time. Also, the TGI in the test with RXF 393 renal, in the test with MDA-N, in the test on MCF7 breast and in the test on NCI-H460 lung was over 100 µM each time.
